Tested on: miR-193a-3p (RNA, miRNA) AACUGGCCUACAAAGUCCCAGU
Test: single-strand gel shift
Conditions: 37 °C 30 min, 200 µM Trp; 15% native PAGE, 0.5x TBE

SMILES: N[C@@H](Cc1c[nH]c2ccccc12)C(=O)O
- binding: yes
